Source: patent US12398141B2 (SHANGHAI SYNERGY PHARMACEUTICAL SCIENCES CO., LTD, priority 2019, dated 2025)

Legend:
JAK1 = JAK1 (Homo sapiens (Human), UniProt P23458); test: JAK1 LANCE Ultra kinase assay; format: biochemical; conditions: for IC50: 38 uM ATP; for JAK2/JAK1: ratio of IC50 JAK2 to IC50 JAK1
Procedure, shortened: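 JAK1 preincubated with compound 10 min at room temperature, then ULight-JAK-1 peptide/ATP added for 90 min at room temperature; stopped with EDTA, Eu-W1024 anti-phosphotyrosine TR-FRET read after 60 min. Inhibition normalised to DMSO and blank wells; IC50 from curve fit.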

JAK2 = JAK2 (Homo sapiens (Human), UniProt O60674); test: JAK2 LANCE Ultra kinase assay; format: biochemical; conditions: 12 uM ATP
JAK3 = JAK3 (Homo sapiens (Human), UniProt P52333); test: JAK3 LANCE Ultra kinase assay; format: biochemical; conditions: 4 uM ATP
male ICR mice = test: Carrageenan-induced paw swelling in mice; format: in vivo; conditions: 10 mg/kg intragastric; for Paw swelling_0.5 h (%): 0.5 h; for Paw swelling rate_1 h (%): 1 h; for Paw swelling rate_2 h (%): 2 h
Method: The inhibiting effects of compounds H01, H07, H11, H12, H14, H15, H22, H25, H29, H30, H33, H39 and H44 on paw swelling in mice were determined after intragastric administration by using male ICR mice (ShanghaiSippr-BK laboratory animal Co. Ltd.), aged 8 weeks and weighing 22-24 g as test animals. The anti-inflammatory pharmacodynamics characteristic of the compounds of the invention was discussed.
A certain amount of compounds were taken and dissolved in 4% Tween 80/0.5% hydroxy propyl methyl cellulose solution. A volume of intragastric administration in mice was 10 ml/kg.
Mice were given 10 mg/kg compounds H01, H07, H11, H12, H14, H15, H22, H25, H29, H30, H33, H39, and H44 and the positive drug indomethacin (Diamond Reagent Co., Ltd., China) by intragastric administration at the dosages shown in the table below and 20 μL 1% (W/V) carrageenan was injected subcutaneously into the plantar 0.5 h later. A paw volume was measured with a paw swelling meter before and at different time points after modeling (0.5 h, 1 h and 2 h). According to the formula: paw swelling rate=(paw volume after administration−basic paw volume)/basic paw volume×100, the inhibiting effect of the compounds on paw volume was calculated. The basic paw volume was a paw volume before administration.

[1] = Collagen-induced rheumatoid arthritis model, clinical score; format: in vivo, mice; parameters: key: 0-4 per limb by redness/deformity, max 16 per animal; conditions: clinical score 0-16 per animal, Day 0 (before modeling)
Method: (§1) The effects of compounds H07, H12, H14, H25, H30, H39 and H44 on rheumatoid arthritis in […] were determined after long term administration by using Lewis male […] (Beijing Vital River Laboratory Animal Technology Co., Ltd.), aged 5-6 weeks and weighing […] as test animals. The anti-inflammatory pharmacodynamics characteristic of the compounds of the invention was discussed.
(§2) A certain amount of compounds were taken and dissolved in 4% Tween 80/0.5% hydroxy propyl methyl cellulose solution. A volume of intragastric administration of mice was 10 ml/kg.
(§3) Collagen type II was dissolved in 0.1M acetic acid and kept in a 4° C. refrigerator overnight at a collagen concentration of 4 mg/mL. Same volume of incomplete Freund adjuvant (Sigma, USA) was added in collagen before injection in test, which was emulsified high speed homogenizer (30000 rpm) to prepare a collagen emulsion. This procedure was carried out on ice.
(§4) Mice were immunologically injected with the collagen emulsion by two separate times for modeling on days 1 and 7 (the day before modeling was day 0). 0.1 ml of collagen emulsion prepared as above was injected intradermally into a root of tail at a single point, and 0.2 ml was injected intradermally into back at two points. The animals were subjected to clinical score and paw volume test from day 10 to day 14 after modeling. Animals successfully modeled (average clinical score≥3 points/animal) were assigned to each administration group, with each group included 10 animals. They were administrated intragastrically with above compounds or resolvents at a dosage of 10 mg/kg twice/day, and administrated intragastrically with methotrexate (2 mg/kg, Sigma, USA) every three days, until day 27. During the test, the […] were scored twice a week, and the paw volume and body weight were measured twice.
(§5) According to the different degrees of lesions (redness and joint deformation), the scores were ranged from 0 to 4 points, with the highest score of 4 points for each limb and 16 points for each animal. Scoring standards are as follows: 0, no redness; 1, slight redness on mid legs (tarsals) or ankles; 2, slight redness from ankles to mid legs (tarsals); 3, medium redness from ankles to tarsometatarsal joints; 4, severe redness from toes or fingers to ankles or wrist joints.

Lewis male mice = test: as above; format: in vivo; parameters: key: 0-4 per limb by redness/deformity, max 16 per animal; conditions: clinical score 0-16 per animal, compounds 10 mg/kg twice/day, methotrexate 2 mg/kg every three days
Method: as §1, §2, §3, §4, §5

Chain of JAK3 (P52333 whole entry): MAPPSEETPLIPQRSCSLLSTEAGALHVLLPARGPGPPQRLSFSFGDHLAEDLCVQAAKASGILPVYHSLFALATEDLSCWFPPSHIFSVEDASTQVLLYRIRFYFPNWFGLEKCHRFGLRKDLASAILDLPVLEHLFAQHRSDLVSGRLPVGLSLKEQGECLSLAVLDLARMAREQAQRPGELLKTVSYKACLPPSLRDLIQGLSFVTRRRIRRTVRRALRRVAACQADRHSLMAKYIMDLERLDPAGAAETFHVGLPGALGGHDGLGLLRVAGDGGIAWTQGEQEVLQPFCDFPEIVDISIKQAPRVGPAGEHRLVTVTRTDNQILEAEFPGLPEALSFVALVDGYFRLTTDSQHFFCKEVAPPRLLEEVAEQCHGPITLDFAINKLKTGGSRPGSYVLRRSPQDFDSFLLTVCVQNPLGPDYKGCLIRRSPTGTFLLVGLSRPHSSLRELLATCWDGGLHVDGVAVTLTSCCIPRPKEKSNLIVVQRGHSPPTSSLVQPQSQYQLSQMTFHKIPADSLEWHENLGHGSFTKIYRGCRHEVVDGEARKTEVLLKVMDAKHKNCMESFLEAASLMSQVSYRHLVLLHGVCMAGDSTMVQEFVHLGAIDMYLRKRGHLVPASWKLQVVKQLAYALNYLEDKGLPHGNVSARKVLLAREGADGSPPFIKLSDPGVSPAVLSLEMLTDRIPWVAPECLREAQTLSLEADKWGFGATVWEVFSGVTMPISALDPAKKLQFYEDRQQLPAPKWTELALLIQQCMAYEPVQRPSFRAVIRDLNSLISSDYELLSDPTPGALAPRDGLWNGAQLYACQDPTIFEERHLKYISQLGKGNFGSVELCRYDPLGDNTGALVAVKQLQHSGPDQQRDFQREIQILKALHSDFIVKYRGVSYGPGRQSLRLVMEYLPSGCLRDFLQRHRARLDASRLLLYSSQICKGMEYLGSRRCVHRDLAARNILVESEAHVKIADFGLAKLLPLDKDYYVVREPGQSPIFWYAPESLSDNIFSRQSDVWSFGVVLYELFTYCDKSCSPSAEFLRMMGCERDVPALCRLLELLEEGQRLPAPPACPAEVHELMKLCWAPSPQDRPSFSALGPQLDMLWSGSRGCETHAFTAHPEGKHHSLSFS
Chain of JAK1 (P23458 whole entry): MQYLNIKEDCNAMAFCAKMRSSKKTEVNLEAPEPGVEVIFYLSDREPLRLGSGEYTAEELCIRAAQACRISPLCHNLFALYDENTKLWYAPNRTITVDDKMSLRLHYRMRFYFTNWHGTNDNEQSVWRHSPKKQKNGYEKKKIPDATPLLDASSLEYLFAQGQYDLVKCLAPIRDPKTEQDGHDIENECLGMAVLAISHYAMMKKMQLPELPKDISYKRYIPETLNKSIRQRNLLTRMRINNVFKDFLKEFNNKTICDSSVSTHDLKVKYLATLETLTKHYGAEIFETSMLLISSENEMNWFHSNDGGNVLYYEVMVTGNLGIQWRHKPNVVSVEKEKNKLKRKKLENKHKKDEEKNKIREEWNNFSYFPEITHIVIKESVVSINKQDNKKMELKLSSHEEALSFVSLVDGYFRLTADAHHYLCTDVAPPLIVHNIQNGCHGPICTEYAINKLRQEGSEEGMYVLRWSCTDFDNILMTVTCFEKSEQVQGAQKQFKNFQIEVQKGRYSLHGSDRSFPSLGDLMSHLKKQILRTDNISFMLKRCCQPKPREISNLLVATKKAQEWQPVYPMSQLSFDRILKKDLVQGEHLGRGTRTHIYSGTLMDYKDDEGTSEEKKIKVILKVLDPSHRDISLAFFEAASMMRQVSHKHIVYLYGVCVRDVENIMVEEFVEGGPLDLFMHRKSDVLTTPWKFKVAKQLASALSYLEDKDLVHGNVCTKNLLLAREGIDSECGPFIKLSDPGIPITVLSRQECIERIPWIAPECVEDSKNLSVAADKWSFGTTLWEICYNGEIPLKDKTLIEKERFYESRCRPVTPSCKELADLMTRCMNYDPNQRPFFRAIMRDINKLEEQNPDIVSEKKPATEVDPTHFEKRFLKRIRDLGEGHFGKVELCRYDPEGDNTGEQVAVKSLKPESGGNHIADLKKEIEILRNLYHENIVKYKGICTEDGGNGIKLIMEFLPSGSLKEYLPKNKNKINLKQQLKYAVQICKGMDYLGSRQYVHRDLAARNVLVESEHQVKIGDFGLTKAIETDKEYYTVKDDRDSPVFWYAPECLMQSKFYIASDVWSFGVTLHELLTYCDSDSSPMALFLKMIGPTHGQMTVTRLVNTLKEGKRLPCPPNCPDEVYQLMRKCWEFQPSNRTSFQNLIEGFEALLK
Chain of JAK2 (O60674 whole entry): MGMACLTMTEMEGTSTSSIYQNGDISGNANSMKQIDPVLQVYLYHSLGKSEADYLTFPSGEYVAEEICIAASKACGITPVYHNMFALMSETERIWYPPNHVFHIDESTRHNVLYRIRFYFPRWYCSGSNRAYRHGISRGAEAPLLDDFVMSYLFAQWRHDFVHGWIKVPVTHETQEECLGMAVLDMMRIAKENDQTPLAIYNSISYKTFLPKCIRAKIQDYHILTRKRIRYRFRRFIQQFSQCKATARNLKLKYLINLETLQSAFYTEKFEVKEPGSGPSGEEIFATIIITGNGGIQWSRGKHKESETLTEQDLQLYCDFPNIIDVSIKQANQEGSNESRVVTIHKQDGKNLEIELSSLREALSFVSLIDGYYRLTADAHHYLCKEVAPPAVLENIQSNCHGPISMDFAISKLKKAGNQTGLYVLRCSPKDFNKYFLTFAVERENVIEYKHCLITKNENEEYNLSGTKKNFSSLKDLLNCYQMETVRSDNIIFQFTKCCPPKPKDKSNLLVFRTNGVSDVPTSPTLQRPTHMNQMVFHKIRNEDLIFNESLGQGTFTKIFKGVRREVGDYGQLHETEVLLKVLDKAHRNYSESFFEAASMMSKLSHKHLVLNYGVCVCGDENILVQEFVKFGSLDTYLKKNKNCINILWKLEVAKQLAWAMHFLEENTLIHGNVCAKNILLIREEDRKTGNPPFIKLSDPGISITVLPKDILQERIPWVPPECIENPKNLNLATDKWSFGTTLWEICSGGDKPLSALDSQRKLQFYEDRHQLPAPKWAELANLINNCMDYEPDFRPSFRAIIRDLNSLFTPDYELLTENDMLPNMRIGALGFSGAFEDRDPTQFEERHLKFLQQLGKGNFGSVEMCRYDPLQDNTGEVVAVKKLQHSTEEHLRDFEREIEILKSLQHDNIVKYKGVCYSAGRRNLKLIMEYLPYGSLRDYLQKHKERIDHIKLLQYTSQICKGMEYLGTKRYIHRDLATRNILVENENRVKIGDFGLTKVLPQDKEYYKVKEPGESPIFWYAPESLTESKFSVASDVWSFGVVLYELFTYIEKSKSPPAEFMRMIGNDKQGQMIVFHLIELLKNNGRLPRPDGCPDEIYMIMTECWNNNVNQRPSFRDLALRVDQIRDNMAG

Compound: COc1nsc(NC(=O)N[C@H]2C[C@@H](N(C)c3c(C#N)cnc4[nH]ccc34)C2)n1 [Compound H29, (cis)-1-(3-((5-cyano-1H-pyrrolo[2,3-b]pyridin-4-yl)(methyl)amino)cyclobutyl)-3-(3-methoxy-1,2,4-thiadiazole-5-yl)urea]
- IC50 (JAK1): 0.36 nM
- JAK2/JAK1 (JAK1): 18.89
- IC50 (JAK2): 6.8 nM
- IC50 (JAK3): 60 nM
- Paw swelling_0.5 h (%) (male ICR mice): 33.03 ± 4.23%
- Paw swelling rate_1 h (%) (male ICR mice): 41.65 ± 2.21%
- Paw swelling rate_2 h (%) (male ICR mice): 40.10 ± 4.32%

Compound: COc1nsc(NC(=O)N2C[C@H]3C[C@H](N(C)c4c(C#N)cnc5[nH]ccc45)C[C@H]3C2)n1 [Compound H07, (3aR,5s,6aS)-4-({2-[(3-methoxy-1,2,4-thiadiazole-5-yl)carbamoyl]-hexahydrocyclopenta[c]pyrrole-5-yl}-methyl-amino)-1H-pyrrolo[2,3-b]pyridin-5-carbonitrile]
- Paw swelling_0.5 h (%) (male ICR mice): 37.02 ± 1.35%
- Paw swelling rate_1 h (%) (male ICR mice): 42.33 ± 2.20%
- Paw swelling rate_2 h (%) (male ICR mice): 41.24 ± 3.36%
- Score Day 0 [1]: 0.00 ± 0.00
- Score Day 13 (Lewis male mice): 3.10 ± 056
- Score Day 14 (Lewis male mice): 4.10 ± 0.41
- Score Day 18 (Lewis male mice): 3.10 ± 0.30
- Score Day 21 (Lewis male mice): 3.00 ± 0.11
- Score Day 25 (Lewis male mice): 2.00 ± 0.25
- Score Day 27 (Lewis male mice): 1.00 ± 0.17

Compound: C[C@@H]1CCN(C(=O)CC#N)C[C@@H]1N(C)c1c(C#N)cnc2[nH]ccc12 [Compound H11, 4-{[(3R,4R)-1-(2-cyanoacetyl)-4-methylpiperidin-3-yl]-methyl-amino}-1H-pyrrolo[2,3-b]pyridin-5-carbonitrile]
- IC50 (JAK1): 1.28 nM
- JAK2/JAK1 (JAK1): 7.70
- IC50 (JAK2): 9.86 nM
- IC50 (JAK3): 77 nM
- Paw swelling_0.5 h (%) (male ICR mice): 30.22 ± 2.62%
- Paw swelling rate_1 h (%) (male ICR mice): 39.76 ± 1.20%
- Paw swelling rate_2 h (%) (male ICR mice): 40.25 ± 5.47%

Compound: CN(c1c(C#N)cnc2[nH]ccc12)[C@H]1C[C@@H]2CN(C(=O)Nc3ccc(Cl)c(C(F)(F)F)c3)C[C@@H]2C1 [Compound H25, (3aR,5s,6aS)-N-(4-chloro-3-(trifluoromethyl)phenyl)-5-((5-cyano-1H-pyrrolo[2,3-b]pyridin-4-yl)(methyl)amino)hexahydrocyclopentadiene[c]pyrrole-2(1H)-carboxamide]
- IC50 (JAK1): 0.56 nM
- JAK2/JAK1 (JAK1): 11.96
- IC50 (JAK2): 6.7 nM
- IC50 (JAK3): 58 nM
- Paw swelling_0.5 h (%) (male ICR mice): 37.45 ± 4.37%
- Paw swelling rate_1 h (%) (male ICR mice): 44.64 ± 3.68%
- Paw swelling rate_2 h (%) (male ICR mice): 44.66 ± 5.58%
- Score Day 0 [1]: 0.00 ± 0.00
- Score Day 13 (Lewis male mice): 2.90 ± 0.48
- Score Day 14 (Lewis male mice): 3.40 ± 0.27
- Score Day 18 (Lewis male mice): 2.13 ± 0.21
- Score Day 21 (Lewis male mice): 1.10 ± 0.10
- Score Day 25 (Lewis male mice): 0.93 ± 0.18
- Score Day 27 (Lewis male mice): 0.74 ± 0.34

Compound: CC(C)c1nsc(NC(=O)N2C[C@H]3C[C@H](N(C)c4c(C#N)cnc5[nH]ccc45)C[C@H]3C2)n1 [Compound H30, (3aR,5s,6aS)-4-({2-[(3-isopropyl-1,2,4-thiadiazole-5-yl)carbamoyl]-hexahydrocyclopenta[c]pyrrole-5-yl}-methyl-amino)-1H-pyrrolo[2,3-b]pyridin-5-carbonitrile]
- IC50 (JAK1): 0.57 nM
- JAK2/JAK1 (JAK1): 11.23
- IC50 (JAK2): 6.4 nM
- IC50 (JAK3): 76 nM
- Paw swelling_0.5 h (%) (male ICR mice): 33.12 ± 1.38%
- Paw swelling rate_1 h (%) (male ICR mice): 43.43 ± 2.12%
- Paw swelling rate_2 h (%) (male ICR mice): 44.52 ± 4.37%
- Score Day 0 [1]: 0.00 ± 0.00
- Score Day 13 (Lewis male mice): 3.20 ± 0.37
- Score Day 14 (Lewis male mice): 4.00 ± 0.45
- Score Day 18 (Lewis male mice): 3.50 ± 0.50
- Score Day 21 (Lewis male mice): 2.83 ± 0.29
- Score Day 25 (Lewis male mice): 2.00 ± 0.27
- Score Day 27 (Lewis male mice): 1.20 ± 0.27

Compound: CN(c1c(C#N)cnc2[nH]ccc12)[C@H]1C[C@@H]2CN(C(=O)Nc3nc(OCC(C)(C)N)ns3)C[C@@H]2C1 [Compound H44, (3aR,5s,6aS)-5-((5-cyano-1H-pyrrolo[2,3-b]pyridin-4-yl)(methyl)amino)-N-(3-(2-amino-2-methyl-propoxy)-1,2,4-thiadiazole-5-yl)hexahydrocyclopentadiene[c]pyrrole-2(1H)-carboxamide]
- IC50 (JAK1): 0.67 nM
- JAK2/JAK1 (JAK1): 23.28
- IC50 (JAK2): 15.6 nM
- IC50 (JAK3): 80 nM
- Paw swelling_0.5 h (%) (male ICR mice): 31.03 ± 2.43%
- Paw swelling rate_1 h (%) (male ICR mice): 42.65 ± 2.21%
- Paw swelling rate_2 h (%) (male ICR mice): 41.56 ± 3.32%
- Score Day 0 [1]: 0.00 ± 0.00
- Score Day 13 (Lewis male mice): 2.80 ± 0.45
- Score Day 14 (Lewis male mice): 3.40 ± 0.27
- Score Day 18 (Lewis male mice): 2.13 ± 0.21
- Score Day 21 (Lewis male mice): 1.70 ± 0.10
- Score Day 25 (Lewis male mice): 0.83 ± 0.48
- Score Day 27 (Lewis male mice): 0.64 ± 0.34

Compound: CN(c1c(C#N)cnc2[nH]ccc12)[C@H]1C[C@@H](NS(=O)(=O)CCC(F)(F)F)C1 [Compound H15, (cis)-4-{[3-(3,3,3-trifluoropropanesulfonamide)-cyclobutyl-1-yl]-methyl-amino}-1H-pyrrolo[2,3-b]pyridin-5-carbonitrile]
- IC50 (JAK1): 2.36 nM
- JAK2/JAK1 (JAK1): 7.03
- IC50 (JAK2): 16.6 nM
- IC50 (JAK3): 244 nM
- Paw swelling_0.5 h (%) (male ICR mice): 36.02 ± 1.37%
- Paw swelling rate_1 h (%) (male ICR mice): 43.33 ± 2.30%
- Paw swelling rate_2 h (%) (male ICR mice): 43.24 ± 4.36%

Compound: CN(C)c1nsc(NC(=O)N2C[C@H]3C[C@H](N(C)c4c(C#N)cnc5[nH]ccc45)C[C@H]3C2)n1 [Compound H33, (3aR,5s,6aS)-4-({2-[(3-dimethylamino-1,2,4-thiadiazole-5-yl)carbamoyl]-hexahydrocyclopenta[c]pyrrole-5-yl}-methyl-amino)-1H-pyrrolo[2,3-b]pyridin-5-carbonitrile]
- IC50 (JAK1): 0.65 nM
- JAK2/JAK1 (JAK1): 8.77
- IC50 (JAK2): 5.7 nM
- IC50 (JAK3): 40 nM
- Paw swelling_0.5 h (%) (male ICR mice): 30.78 ± 2.62%
- Paw swelling rate_1 h (%) (male ICR mice): 31.76 ± 1.86%
- Paw swelling rate_2 h (%) (male ICR mice): 41.75 ± 5.67%

Compound: CN(c1c(C#N)cnc2[nH]ccc12)[C@H]1C[C@@H]2CN(C(=O)NCC(F)(F)F)C[C@@H]2C1 [Compound H22, (3aR,5s,6aS)-4-({2-[(2,2,2-trifluoroethyl)-carbamoyl]-hexahydrocyclopenta[c]pyrrole-5-yl}-methyl-amino)-1H-pyrrolo[2,3-b]pyridin-5-carbonitrile]
- IC50 (JAK1): 0.35 nM
- JAK2/JAK1 (JAK1): 16.40
- IC50 (JAK2): 5.8 nM
- IC50 (JAK3): 58 nM
- Paw swelling_0.5 h (%) (male ICR mice): 31.22 ± 2.62%
- Paw swelling rate_1 h (%) (male ICR mice): 41.76 ± 1.20%
- Paw swelling rate_2 h (%) (male ICR mice): 42.25 ± 5.67%
